According to the supplement of paper PMC5844555:

Columns and labels:
Assay in all cases: 3' UTR reporter interaction score (median-centred robust z-score of log2 firefly/Renilla activity); higher = less repression of the 3' UTR reporter
Conditions in all cases: HEK293T; 48 h
MYCN = tested on: MYCN
Outline: (§1)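 Using DharmaFECT Duo, HEK293T cells (10,000/well, 96-well plates) were co-transfected with 2.5 pmol miRNA mimic, 100 ng firefly luc2P reporter containing the gene's 3' UTR and 20 ng Renilla pRL-TK control, and dual-luciferase activity was read 48 h later. The interaction score is the log firefly/Renilla ratio as a per-plate robust z-score (median, median absolute deviation), median-centred per miRNA, averaged over at least two independent screens; lower, more negative values indicate interaction.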

TP53 = tested on: TP53
Outline: as §1

MYT1L = tested on: MYT1L
Outline: as §1

FBXW7 = tested on: FBXW7
Outline: as §1

ZEB2 = tested on: ZEB2
Outline: as §1

PHOX2B = tested on: PHOX2B
Outline: as §1

BRCA2 = tested on: BRCA2
Outline: as §1

HRAS = tested on: HRAS
Outline: as §1

MYC = tested on: MYC
Outline: as §1

NOTCH1 = tested on: NOTCH1
Outline: as §1

RB1 = tested on: RB1
Outline: as §1

PHF6 = tested on: PHF6
Outline: as §1

MYB = tested on: MYB
Outline: as §1

EZH2 = tested on: EZH2
Outline: as §1

| Sequence | 3' UTR reporter interaction score (MYCN) | 3' UTR reporter interaction score (TP53) | 3' UTR reporter interaction score (MYT1L) | 3' UTR reporter interaction score (FBXW7) | 3' UTR reporter interaction score (ZEB2) | 3' UTR reporter interaction score (PHOX2B) | 3' UTR reporter interaction score (BRCA2) | 3' UTR reporter interaction score (HRAS) | 3' UTR reporter interaction score (MYC) | 3' UTR reporter interaction score (NOTCH1) | 3' UTR reporter interaction score (RB1) | 3' UTR reporter interaction score (PHF6) | 3' UTR reporter interaction score (MYB) | 3' UTR reporter interaction score (EZH2) |
| --- | --- | --- | --- | --- | --- | --- | --- | --- | --- | --- | --- | --- | --- | --- |
| GACCUGGACAUGUUUGUGCCCAGU | 0.492 | -0.242 | 0.464 | 0.534 | 2.18 | 0.605 | 0.214 | -0.318 | -0.104 | -0.107 | -0.469 | 0.792 | -0.217 | -0.0513 |
| GAGCCAGUUGGACAGGAGC | 0.298 | 1 | 0.521 | 0.107 | -0.65 | 0.261 | -1.34 | 0.00377 | -0.0272 | -0.874 | -0.775 | -1.97 | 0.363 | -0.353 |
| GAGCUUAUUCAUAAAAGUGCAG | 0.314 | -1.36 | -2.82 | -1.75 | -1.29 | -0.299 | 0.117 | 0.562 | 1.07 | -0.458 | 2.05 | -0.038 | 0.663 | 0.564 |
| GAGGUUGUCCGUGGUGAGUUCG | -0.211 | -0.45 | 0.00527 | -1.94 | 0.323 | 0.511 | -0.325 | -0.768 | -2.33 | 0.138 | -0.327 | -0.125 | 0.0834 | -0.239 |
| GAGUGCCUUCUUUUGGAGCGU | 0.414 | -0.254 | 1.25 | 0.805 | -0.377 | -3.88 | -0.0488 | -0.294 | -0.339 | -0.567 | 0.093 | 2.96 | -0.982 | 0.0213 |
| GAUGAGCUCAUUGUAAUAUG | 0.201 | 0.29 | 1.26 | 0.747 | -1.1 | -0.674 | -0.641 | 0.049 | -0.384 | -0.218 | 0.134 | -0.609 | 0.0611 | 0.284 |
| GAUUGCUCUGCGUGCGGAAUCGAC | -0.19 | -0.352 | -1.1 | -0.34 | -0.205 | 0.972 | 0.00588 | -0.851 | -2.18 | -0.0878 | 0.524 | 0.0123 | -0.474 | 0.471 |
| GCAAAGCACACGGCCUGCAGAGA | -0.217 | -0.0423 | -0.692 | 0.141 | 0.307 | -0.597 | 0.0737 | -0.313 | 0.499 | 0.357 | -1.65 | 1.65 | 1.11 | 0.138 |
| GCACAUUACACGGUCGACCUCU | 0.192 | -0.315 | -0.0362 | 0.52 | 1.19 | -1.13 | -0.107 | -0.25 | -0.285 | -0.223 | -0.0189 | 0.116 | 0.761 | -0.1 |
| GCCCCUGGGCCUAUCCUAGAA | 0.221 | -0.179 | -0.294 | 0.0138 | -0.237 | -0.0536 | 0.566 | -0.133 | -0.282 | -0.931 | 0.411 | 2.01 | 0.244 | 0.389 |
